Source: PubChem BioAssay (NCI)
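At the GI50, growth is halved. At the TGI there is no net growth.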

Tests used:
Test in all cases: NCI anticancer screen, dose series, 384-well format
[1] = system: U251 glioblastoma
[2] = system: MDA-MB-435 melanoma
[3] = system: SN12C renal
[4] = system: TK-10 renal
[5] = system: 786-0 renal
[6] = system: HS 578T breast
[7] = system: SK-MEL-2 melanoma
[8] = system: MDA-MB-231 breast
[9] = system: NCI-H226 lung
[10] = system: SNB-75 CNS
[11] = system: LOX IMVI melanoma
[12] = system: SNB-19 CNS
[13] = system: HCC-2998 colon
[14] = system: EKVX NSCLC
[15] = system: OVCAR-5 ovarian
[16] = system: MOLT-4 leukemia
[17] = system: UACC-62 melanoma
[18] = system: KM12 colon
[19] = system: MALME-3M melanoma
[20] = system: NCI-H322M lung
[21] = system: NCI-H460 NSCLC
[22] = system: SF-539 CNS
[23] = system: MCF7 breast
[24] = system: ACHN renal
[25] = system: SK-OV-3 ovarian
[26] = system: HCT-116 colon
[27] = system: K-562 leukemia
[28] = system: A549 NSCLC
[29] = system: COLO 205 colon
[30] = system: SK-MEL-5 melanoma
[31] = system: DU-145 prostate
[32] = system: UACC-257 melanoma
[33] = system: BT-549 breast
[34] = system: SK-MEL-28 melanoma
[35] = system: OVCAR-3 ovarian
[36] = system: SR leukemia
[37] = system: RPMI-8226 leukemia
[38] = system: SF-268 CNS
[39] = system: OVCAR-4 ovarian
[40] = system: T-47D breast
[41] = system: HOP-62 NSCLC
[42] = system: HOP-92 NSCLC
[43] = system: SF-295 CNS
[44] = system: NCI-H522 lung
[45] = system: SW-620 colon
[46] = system: HT29 colon
[47] = system: NCI/ADR-RES ovarian
[48] = system: NCI-H23 lung
[49] = system: A498 renal
[50] = system: HCT-15 colon
[51] = system: CAKI-1 renal
[52] = system: PC-3 prostate
[53] = system: OVCAR-8 ovarian
[54] = system: HL-60(TB) leukemia
[55] = system: M14 melanoma
[56] = system: RXF 393 renal
[57] = system: UO-31 renal
[58] = system: MDA-MB-468 breast
[59] = system: IGROV1 ovarian

With `C[C@@H]1C[C@H](N)C[C@H](c2ccncc2NC(=O)c2ccc(F)c(-c3c(F)cccc3F)n2)C1` the GI50 [1] was 10.5 µM, the TGI [1] was 22.4 µM and the GI50 [2] was 11.5 µM. The TGI [2] was 24 µM, the GI50 [3] was 14.4 µM and the TGI [3] was 27.6 µM. For the same molecule, the GI50 [4] was 12.5 µM, the TGI [4] was 25.1 µM and the GI50 [5] was 6.99 µM. The TGI [5] was 19.5 µM, the GI50 [6] was 10.2 µM and the TGI [6] was 21.9 µM. It also gave a GI50 [7] of 13.4 µM, a TGI [7] of 26.2 µM and a GI50 [8] of 13.3 µM. It also gave a TGI [8] of 26.1 µM, a GI50 [9] of 4.79 µM and a TGI [9] of 20.8 µM. For the same molecule, the GI50 [10] was 7.54 µM, the TGI [10] was 21.2 µM and the GI50 [11] was 4.22 µM. For the same molecule, the TGI [11] was 15.6 µM, the GI50 [12] was 15.8 µM and the TGI [12] was 29.3 µM. For the same molecule, the GI50 [13] was 1.9 µM, the TGI [13] was 4.02 µM and the GI50 [14] was 6.36 µM. For the same molecule, the TGI [14] was 19.3 µM, the GI50 [15] was 11.7 µM and the TGI [15] was 24 µM. For the same molecule, the GI50 [16] was 3.21 µM, the TGI [16] was 12.5 µM and the GI50 [17] was 8.71 µM. For the same molecule, the TGI [17] was 22 µM, the GI50 [18] was 10.4 µM and the TGI [18] was 22.3 µM. For the same molecule, the GI50 [19] was 1.49 µM, the TGI [19] was 3.11 µM and the GI50 [20] was 14.4 µM. The TGI [20] was 27.5 µM, the GI50 [21] was 6.02 µM and the TGI [21] was 17.2 µM. The GI50 [22] was 7.93 µM, the TGI [22] was 20.8 µM and the GI50 [23] was 7.02 µM. The TGI [23] was 20.3 µM, the GI50 [24] was 13.8 µM and the TGI [24] was 26.9 µM. It also gave a GI50 [25] of 14.3 µM, a TGI [25] of 27.4 µM and a GI50 [26] of 7.07 µM. The TGI [26] was 19.9 µM, the GI50 [27] was 2.17 µM and the TGI [27] was 10.9 µM. It also gave a GI50 [28] of 12.5 µM, a TGI [28] of 25.5 µM and a GI50 [29] of 4.64 µM. For the same molecule, the TGI [29] was 11.9 µM, the GI50 [30] was 1.74 µM and the TGI [30] was 4.28 µM. The GI50 [31] was 15.7 µM, the TGI [31] was 29.3 µM and the GI50 [32] was 1.65 µM. It also gave a TGI [32] of 3.03 µM, a GI50 [33] of 5.53 µM and a TGI [33] of 19.2 µM. It also gave a GI50 [34] of 5.54 µM, a TGI [34] of 10.8 µM and a GI50 [35] of 11.6 µM. It also gave a TGI [35] of 23.9 µM, a GI50 [36] of 1.76 µM and a TGI [36] of 3.56 µM. The GI50 [37] was 0.0942 µM, the TGI [37] was 0.674 µM and the GI50 [38] was 5.86 µM. It also gave a TGI [38] of 15.9 µM, a GI50 [39] of 17.2 µM and a TGI [39] of 31.1 µM. For the same molecule, the GI50 [40] was 4.76 µM, the TGI [40] was 17.7 µM and the GI50 [41] was 12.8 µM. For the same molecule, the TGI [41] was 25.5 µM, the GI50 [42] was 6.4 µM and the TGI [42] was 19.7 µM. It also gave a GI50 [43] of 16.9 µM, a TGI [43] of 30.6 µM and a GI50 [44] of 12.5 µM. It also gave a TGI [44] of 25.1 µM, a GI50 [45] of 14.3 µM and a TGI [45] of 27.4 µM. For the same molecule, the GI50 [46] was 5.3 µM, the TGI [46] was 14.9 µM and the GI50 [47] was 16.7 µM. The TGI [47] was 30.6 µM, the GI50 [48] was 14.5 µM and the TGI [48] was 27.7 µM. For the same molecule, the GI50 [49] was 4.81 µM, the TGI [49] was 18.1 µM and the GI50 [50] was 9.74 µM. It also gave a TGI [50] of 23.8 µM, a GI50 [51] of 3.78 µM and a TGI [51] of 17.2 µM. The GI50 [52] was 4.76 µM, the TGI [52] was 17.3 µM and the GI50 [53] was 14.3 µM. The TGI [53] was 27.5 µM, the GI50 [54] was 3.6 µM and the TGI [54] was 16.3 µM. The GI50 [55] was 3.43 µM, the TGI [55] was 7.63 µM and the GI50 [56] was 3.18 µM. For the same molecule, the TGI [56] was 11.9 µM, the GI50 [57] was 13.5 µM and the TGI [57] was 26.4 µM. The GI50 [58] was 3.42 µM, the TGI [58] was 10.2 µM and the GI50 [59] was 7.37 µM. For the same molecule, the TGI [59] was 19.9 µM.
